The source made the active and inactive calls. The calls are words filed in the database; no cut-off is given here.
Legend:
[1] = Apparent volume of distribution in Sprague-Dawley rat at 10 mg/kg, ip measured upto 48 hrs by LC-MS/MS analysis; assay type: ADME, organism-based; conditions: in vivo
MC-38 [2] = experiment: Antitumor activity against mouse MC38 cells implanted in PD-1/PD-L1 humanized C57/BL6 mouse assessed as increase in perforin levels at 50 mg/kg, IG qd administered on day 5 measured after 2 weeks by microscopic analysis; assay type: functional, organism-based
[3] = Nephrotoxicity in PD-1/PD-L1 humanized C57/BL6 mouse implanted with mouse MC38 cells assessed as effect on creatinine level in serum at 50 mg/kg, IG qd administered on day 5 measured after 2 weeks; assay type: toxicity, organism-based, MC-38; conditions: in vivo, po, 336 h
[4] = Tmax in Sprague-Dawley rat at 40 mg/kg, IG measured upto 48 hrs by LC-MS/MS analysis; assay type: ADME, organism-based; conditions: in vivo, po
[5] = Toxicity in PD-1/PD-L1 humanized C57/BL6 mouse implanted with mouse MC38 cells assessed as change in body weight at 50 mg/kg, IG qd administered on day 5 measured after 2 weeks; assay type: organism-based, MC-38; conditions: in vivo, po, 336 h
[6] = Apparent volume of distribution in Sprague-Dawley rat at 8 mg/kg, iv measured upto 48 hrs by LC-MS/MS analysis; assay type: ADME, organism-based; conditions: Sprague-Dawley, in vivo, read-out: Vz
[7] = Hepatotoxicity in PD-1/PD-L1 humanized C57/BL6 mouse implanted with mouse MC38 cells assessed as effect on ALB level in serum at 50 mg/kg, IG qd administered on day 5 measured after 2 weeks; assay type: toxicity, organism-based, MC-38; conditions: in vivo, po, 336 h
[8] = Tmax in Sprague-Dawley rat at 8 mg/kg, iv measured upto 48 hrs by LC-MS/MS analysis; assay type: ADME, organism-based; conditions: in vivo
[9] = Toxicity in PD-1/PD-L1 humanized C57/BL6 mouse implanted with mouse MC38 cells assessed as morphological change in spleen at 50 mg/kg, IG qd administered on day 5 measured after 2 weeks by hematoxylin-eosin staining based inverted fluorescent microscopic analysis; assay type: organism-based, MC-38; conditions: in vivo, po, 336 h
MC-38 [10] = experiment: Antitumor activity against mouse MC38 cells implanted in PD-1/PD-L1 humanized C57/BL6 mouse assessed as increase in granzyme B level at 50 mg/kg, IG qd administered on day 5 measured after 2 weeks by microscopic analysis; assay type: functional, organism-based
MC-38 [11] = experiment: Immunomodulatory activity in mouse MC38 cells implanted in PD-1/PD-L1 humanized C57/BL6 mouse assessed as increase in CXCL9 mRNA expression level in tumor at 50 mg/kg, IG qd administered on day 5 measured after 2 weeks by RT-PCR analysis; assay type: functional, organism-based
MC-38 [12] = experiment: Immunomodulatory activity in mouse MC38 cells implanted in PD-1/PD-L1 humanized C57/BL6 mouse assessed as increase in CXCL10 mRNA expression level in tumor at 50 mg/kg, IG qd administered on day 5 measured after 2 weeks by RT-PCR analysis; assay type: functional, organism-based
[13] = Nephrotoxicity in PD-1/PD-L1 humanized C57/BL6 mouse implanted with mouse MC38 cells assessed as effect on urea level in serum at 50 mg/kg, IG qd administered on day 5 measured after 2 weeks; assay type: toxicity, organism-based, MC-38; conditions: in vivo, po, 336 h
[14] = target: Programmed cell death protein 1/Programmed cell death 1 ligand 1 (Homo sapiens) (UniProt Q15116+Q9NZQ7); experiment: Inhibition of PD-1/PD-L1 interaction in human PBMC cells assessed as increase in IFN-gamma secretion at 4 uM incubated for 48 hrs in presence of PD-L1 protein by ELISA assay; assay type: cell-based
[15] = Bioavailability in Sprague-Dawley rat at 40 mg/kg, IG measured upto 48 hrs by LC-MS/MS analysis; assay type: ADME, organism-based; conditions: in vivo, po
PBMC = experiment: Cytotoxicity against human PBMC cells assessed as reduction in cell viability at 1 to 4 uM measured after 48 hrs by CCK-8 assay; assay type: toxicity, cell-based; conditions: dose 1-4 µM

## N#Cc1cncc(COc2cc(OCc3cccc(-c4ccccc4F)c3Cl)ccc2CNCCO)c1
[1]
  Vz: 2.94 L/kg
MC-38 [2]
  Activity: Active
[3]
  Activity: Non-Toxic
[4]
  Tmax: 105 min
[5]
  Activity: Non-Toxic
[6]
  Vd: 1.09 L/kg
[7]
  Activity: Non-Toxic
[8]
  Tmax: 4.8 min
[9]
  Activity: Non-Toxic
MC-38 [10]
  Activity: Active
MC-38 [11]
  Activity: Active
MC-38 [12]
  Activity: Active
[13]
  Activity: Non-Toxic
[14]
  inhibition: Active
[15]
  bioavailability: 114%
PBMC
  Activity: Non-Toxic
